# Experimental data as given in patent US8748407B2 (The Research Foundation for the State University of New York, priority 2010, dated 2014).
# Target: T1, GluA2Qflip (Rattus norvegicus, UniProt P19491)
# T1 construct: expressed in transfected cells; host or cells: HEK-293S
# Assay: Homologous competitive binding assay (32P-labeled aptamer, membrane-bound receptor)
# Experimental: Whether AG56 bound to the close-channel state or conformation, and if so, the affinity of binding were assayed by homologous competitive binding assay using ^32P-label^4. To do this, RNA was first dephosphorylated by using calf intestinal phosphatase (CIP), prior to the 5′-end ^32P-labeling^5. Labeled RNA was passed through a NucAway spin column (Applied Biosystem) to remove excess γ-^32P-ATP. Then, 1 μl of 10 nM of ^32P-labeled aptamer was mixed with 2 μg of yeast tRNA (Sigma) and a series of concentrations of unlabeled (cold) aptamer whose concentrations varied from 0-400 nM in the final reaction mix. The mixed aptamer sample was incubated first at 70° C. for 10 min and then at room temperature for 20 min, before mixed with the receptor. For receptor preparation, […] of the membrane-bound receptor was resuspended in 1× extracellular buffer with and without 1 mM of kainate (which corresponded to the open-channel state and the closed-channel state, respectively; for the latter, it corresponded to precisely the unliganded, closed-channel state). The final concentration for the receptor and for the hot aptamer, after mixing, was 0.4 nM and 0.1 nM, respectively. The mixture was incubated at 22° C. for 1 hour for binding. […] The radioactivity on the filter was quantified in a scintillation counter (Beckman LS6500). […]
# T1 sequence (P19491 22-883 isoform P19491-2): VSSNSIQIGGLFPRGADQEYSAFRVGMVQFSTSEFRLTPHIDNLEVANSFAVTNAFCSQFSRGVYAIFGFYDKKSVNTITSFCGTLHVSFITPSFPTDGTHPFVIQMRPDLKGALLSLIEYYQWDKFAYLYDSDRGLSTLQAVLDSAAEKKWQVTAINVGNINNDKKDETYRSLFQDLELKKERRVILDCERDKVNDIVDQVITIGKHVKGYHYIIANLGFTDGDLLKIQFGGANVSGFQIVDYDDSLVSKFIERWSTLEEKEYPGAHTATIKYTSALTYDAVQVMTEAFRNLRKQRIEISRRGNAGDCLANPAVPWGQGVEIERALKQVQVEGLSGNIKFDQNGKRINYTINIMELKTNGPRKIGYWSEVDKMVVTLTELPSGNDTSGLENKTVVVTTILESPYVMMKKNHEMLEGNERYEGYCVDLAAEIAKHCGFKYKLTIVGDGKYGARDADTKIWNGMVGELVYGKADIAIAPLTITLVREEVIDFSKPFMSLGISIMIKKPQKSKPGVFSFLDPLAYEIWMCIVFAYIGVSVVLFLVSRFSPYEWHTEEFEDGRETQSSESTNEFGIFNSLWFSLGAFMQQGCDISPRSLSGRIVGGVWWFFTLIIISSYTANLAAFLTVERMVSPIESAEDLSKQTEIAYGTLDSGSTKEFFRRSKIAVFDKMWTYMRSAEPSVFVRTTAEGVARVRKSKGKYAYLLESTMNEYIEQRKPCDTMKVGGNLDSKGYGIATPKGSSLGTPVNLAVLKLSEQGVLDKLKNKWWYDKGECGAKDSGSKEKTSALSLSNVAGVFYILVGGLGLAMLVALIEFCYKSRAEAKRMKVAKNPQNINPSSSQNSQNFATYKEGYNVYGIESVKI
substance,measurement,setting,value
"AG56: 56-nucleotide truncated version of AG1407, RNA aptamer (GGGAGAUUGUGAAGCGUAGGCUCGAGUUUGUCCCGCGAGCCAAAGAUUCCAGACCC; RNA, backbone not given here)",Kd,open-channel conformation (1 mM kainate),80 ± 23 nM
same,Kd,"unliganded, closed-channel conformation (without kainate)",68 ± 40 nM
